Source: patent US20090259054A1, “Methods and Compositions for the Treatment of Angiogenesis and Macular Degeneration” (The Texas A&M University System, priority 2008, published 2009)
Several values for one entry are separate records, joined by “and”; a condition that tells them apart may be missing. Equal values may be shown once. Entries after “also recorded” stand apart in the source; their conditions may differ.

Columns and labels:
PC3 cells = assay: Flow cytometry / FACS apoptosis (Sub G1, propidium iodide); type: cell-based, human; settings: 24 hours
Description: About 2×10^6 HUVEC and PC3 cells were treated with different concentrations of GA at 37° C. in a 5% CO2 incubator for 24 hours. The cells were collected and flow cytometry was performed using a FACS Vantage SE DiVa flow cytometer (Becton Dickinson) with propidium iodide staining. The cell population percentages at Sub G1 were defined as apoptotic cells.

HUVEC cells = assay: Wound migration assay, VEGF dependent; type: cell-based, human; settings: 10 nM GA, 4 ng/ml VEGF, 24 hours
Description: HUVEC cells were allowed to grow to full confluence on six-well plates precoated with 0.1% gelatin. Monolayer cells were wounded by scratching with 1 ml pipette tip and washed three times with 1×PBS. Fresh endothelial cell growth medium (hereinafter, ECGM) was added with or without 4 ng/ml VEGF, which was received from the NIH experimental branch, and supplemented with different concentrations of GA. Images were taken after 24 hours of incubation at 37° C. in a 5% CO2 incubator (hereinafter, 5% CO2) with a Nikon digital camera. For PC3 cell migration, PC3 cells were allowed to grow to full confluence on six-well plates and wounded by scratching with a 1 ml pipette tip and washed three times of 1×PBS. Fresh 1640 medium was added with 4 ng/ml VEGF and different concentrations of GA. After a 24-hour incubation period, images were take with a Leica DM IRB inverted microscope. The migrated cells were quantified by manual counting of high power fields (HPF, 200×) and percent inhibition was expressed using untreated wells as 100% (t-test, p<0.005).

VEGF Receptor 2 = biological target: T1, VEGF Receptor 2 (Homo sapiens, UniProt P35968); assay: VEGF Receptor 2 inhibition assay (HTScan VEGF receptor 2 kinase assay kit); type: biochemical; settings: 100 ng active VEGFR2
T1 construct: purchased Cell Signaling Technology
Description: (§1) After starvation in ECGM medium without serum overnight, HUVEC cells were washed with 1×PBS twice, followed with incubation in M199 medium. HUVEC cells were then treated with 1 nM of GA and/or 4 nM of VEGF for 5 minutes, then subjected to immunoprecipitation using anti-VEGFR2 antibody. Anti-phosphotyrosine antibody was used for the detection of phosphorylation of the tyrosine residue of VEGFR2. […] Reaction cocktail containing 100 ng of active VEGFR2 was incubated with different concentrations of GA for 5 minutes at room temperature. Substrate peptide cocktail was added to the pre-incubated reaction cocktail/GA compound. After incubation at room temperature for 30 minutes, stop buffer was added to halt the reaction. 25 μl of each reaction was then transferred with 75 μl dH2O per well into a 96-well streptavidin coated plate and incubated at room temperature for 60 minutes. […] The stop solution was added and the plate was detected at 405 nm. […]
12.5 μl of the 4× reaction cocktail containing 100 ng VEGF Receptor 2 (supplied from the HTScan® VEGF receptor 2 kinase assay kit, Cell Signaling Technology, USA) was incubated with 12.5 μl/tube of GA for 5 minutes at room temperature. […] The plate was then detected at 405 nm with VERSAMAX microplate reader (Molecular Devices). […]

VEGFR2 = biological target: T2, VEGFR2 (Homo sapiens, UniProt P35968); assay: VEGFR2 tyrosine phosphorylation in VEGF stimulated HUVEC cells (immunoprecipitation, Western blotting); type: cell-based; settings: 1 nM GA, 4 nM VEGF, 5 minutes
T2 construct: endogenous in cells; host or cells: HUVEC
Description: as §1
VEGFR2 is the primary receptor in VEGF signaling pathway that regulates endothelial cell proliferation, migration, differentiation, tube formation, and angiogenesis. […] HUVEC cells were stimulated with VEGF; phosphorylation and activation of VEGFR2 was detected by immunoprecipitation with anti-VEGFR2 (Flk-1) antibody and by Western blotting with anti-pTyr-antibody for phosphorylation of VEGFR2.

T2 sequence (P35968 20-1356): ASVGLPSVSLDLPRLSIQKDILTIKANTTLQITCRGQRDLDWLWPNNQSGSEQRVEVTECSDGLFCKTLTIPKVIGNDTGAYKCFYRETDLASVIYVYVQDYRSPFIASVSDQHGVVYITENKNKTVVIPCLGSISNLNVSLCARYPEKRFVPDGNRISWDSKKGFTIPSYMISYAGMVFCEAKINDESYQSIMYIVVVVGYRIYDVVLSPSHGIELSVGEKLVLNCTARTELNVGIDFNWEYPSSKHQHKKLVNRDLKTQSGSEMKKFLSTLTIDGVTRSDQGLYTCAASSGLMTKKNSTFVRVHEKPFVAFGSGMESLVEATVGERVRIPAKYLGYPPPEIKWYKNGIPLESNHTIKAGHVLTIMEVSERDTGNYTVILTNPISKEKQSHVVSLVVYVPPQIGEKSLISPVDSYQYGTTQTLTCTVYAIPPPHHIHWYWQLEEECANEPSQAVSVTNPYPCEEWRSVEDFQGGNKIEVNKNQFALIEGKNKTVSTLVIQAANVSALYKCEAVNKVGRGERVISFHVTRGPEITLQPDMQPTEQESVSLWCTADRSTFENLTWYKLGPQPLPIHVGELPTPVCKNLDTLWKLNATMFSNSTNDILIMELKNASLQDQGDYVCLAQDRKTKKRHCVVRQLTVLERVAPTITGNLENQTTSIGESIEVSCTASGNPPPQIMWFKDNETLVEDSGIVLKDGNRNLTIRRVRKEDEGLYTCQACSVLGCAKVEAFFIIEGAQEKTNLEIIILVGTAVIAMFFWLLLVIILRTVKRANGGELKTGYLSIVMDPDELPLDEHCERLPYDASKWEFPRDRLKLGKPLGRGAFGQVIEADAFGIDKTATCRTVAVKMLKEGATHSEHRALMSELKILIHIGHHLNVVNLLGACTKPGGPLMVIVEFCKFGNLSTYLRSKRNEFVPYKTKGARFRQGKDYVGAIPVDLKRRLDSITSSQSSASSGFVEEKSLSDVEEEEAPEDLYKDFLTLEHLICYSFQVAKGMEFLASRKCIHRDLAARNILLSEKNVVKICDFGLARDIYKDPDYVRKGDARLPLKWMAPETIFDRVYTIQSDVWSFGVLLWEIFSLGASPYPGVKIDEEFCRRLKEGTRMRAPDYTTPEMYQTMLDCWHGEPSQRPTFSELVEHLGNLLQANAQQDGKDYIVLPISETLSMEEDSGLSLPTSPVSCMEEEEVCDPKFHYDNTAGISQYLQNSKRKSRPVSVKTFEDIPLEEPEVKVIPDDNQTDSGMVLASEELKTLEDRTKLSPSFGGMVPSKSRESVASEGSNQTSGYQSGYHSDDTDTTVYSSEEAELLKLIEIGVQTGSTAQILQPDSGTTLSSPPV
T1 sequence (P35968 789-1356 limits assumed): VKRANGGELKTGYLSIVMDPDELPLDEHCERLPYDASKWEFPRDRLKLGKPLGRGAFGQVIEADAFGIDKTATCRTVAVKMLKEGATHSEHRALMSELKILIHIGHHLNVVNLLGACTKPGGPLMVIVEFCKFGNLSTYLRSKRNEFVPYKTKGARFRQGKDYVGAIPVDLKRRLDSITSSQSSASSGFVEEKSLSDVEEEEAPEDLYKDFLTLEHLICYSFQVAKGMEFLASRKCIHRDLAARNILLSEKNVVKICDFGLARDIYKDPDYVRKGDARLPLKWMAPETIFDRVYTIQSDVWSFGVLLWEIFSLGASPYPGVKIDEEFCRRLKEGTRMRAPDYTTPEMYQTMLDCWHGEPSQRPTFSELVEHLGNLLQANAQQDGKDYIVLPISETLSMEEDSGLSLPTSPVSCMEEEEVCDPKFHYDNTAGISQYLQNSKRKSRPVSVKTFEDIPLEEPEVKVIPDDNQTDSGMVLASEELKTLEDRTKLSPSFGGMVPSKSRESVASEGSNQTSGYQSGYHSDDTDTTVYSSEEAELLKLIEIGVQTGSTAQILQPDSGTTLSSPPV

SMILES: CC(C)=CCC[C@]1(C)C=Cc2c(O)c3c(c(CC=C(C)C)c2O1)O[C@]12C(=C[C@@H]4C[C@H]1C(C)(C)O[C@@]2(C/C=C(/C)C(=O)O)C4=O)C3=O [GA, gambogic acid]
- Apoptotic population (PC3 cells; GA 20 nM): 1.6 ± 0.3 % of total
- Apoptotic population (PC3 cells; GA 40 nM): 2.9 ± 0.4 % of total
- Apoptotic population (PC3 cells; GA 80 nM): 4 % of total and 4.3 ± 0.5 % of total
- Apoptotic population (PC3 cells; GA 100 nM): 13.8 ± 3.6 % of total
- VEGF dependent migration of HUVEC cells (HUVEC cells): inhibits VEGF dependent migration; also recorded: strongly inhibited VEGF dependent migration
- IC50 (VEGF Receptor 2): 12 pM
- Phosphorylation and activation of VEGFR2 in HUVEC cells (VEGFR2): dramatically inhibited the phosphorylation of VEGFR2; also recorded: strongly inhibited VEGFR2 kinase activity
